Entries after “also recorded” stand apart in the source; their conditions may differ.
Assays:
Format in all cases: cell-based, human
MMP-9 = assay: Zymography of conditioned media
Method: FIG. 9. FGF-2 stimulates Matrigel invasion of N-cadherin-expressing cells and expression of MMP-9. (A) Invasion through Matrigel-coated filters of control and N-cadherin-expressing cells, pretreated for 24 h with 10 ng/ml of FGF-2 or left untreated, as measured 5 h after inoculation into Transwell chambers. The invading cells were stained (see Materials and Methods) and photographed using a digital microscope camera. Each panel illustrates a sample representing three to six filters. (B) Gelatinolytic activity of conditioned media of control (Neo-mass) (lanes 1 and 2) or N-cadherin-transfected MCF-7 cells (N-cad-mas, N-cad-5, and N-cad-17; lanes 3-8) that were either treated with FGF-2, or left untreated, as indicated. […]
FIG. 12. […] A. MCF-7 breast cancer cells expressing either control vector (control) or N-cadherin (N-cad-5) were treated with or without FGF-2 and the relative activation of MAPK was assessed by blotting the lysates with anti phospho-MAPK (P-MAPK) (upper panel A, lanes 1-4) against the total levels of MAPK in the same lysates (T-MAPK) (lower panel A, lanes 1-4). […]
Secreted metalloproteinases were detected and characterized by zymography (Nakajima I et al., 1995, Br. J. Cancer. 71:1039-1045). […]

MAPK = assay: Anti-phospho-MAPK immunoblot of cell lysates
Method: FIG. 12. N-cadherin synergizes with FGF-2 in promoting MAPK activation and MMP-9 production. A. MCF-7 breast cancer cells expressing either control vector (control) or N-cadherin (N-cad-5) were treated with or without FGF-2 and the relative activation of MAPK was assessed by blotting the lysates with anti phospho-MAPK (P-MAPK) (upper panel A, lanes 1-4) against the total levels of MAPK in the same lysates (T-MAPK) (lower panel A, lanes 1-4). B. MCF-7 breast cancer cells expressing N-cadherin (N-cad-5) were treated with or without FGF-2 in the absence or presence of a potent inhibitor of MAPK ([…]) and cell lysates were blotted with anti-P-MAPK antibodies (lower panel B) or assayed for MMP (Matrix Metallo Protease) production (upper panel B).
To determine whether N-cadherin/FGF-2-stimulated expression of MMP-9 is caused by increased MAPK activity, levels of MAPK activation in N-cadherin-expressing MCF-7 cells (N-cad-5) were compared to those found in control MCF-7 cells (Neo-mass) in response to FGF-2. Serum-starved control and N-cad-5 cells were treated with 10 ng/mL FGF-2 for 10 min and 30 μg of cell lysate were subjected to SDS-PAGE and immunobloting with either anti-phospho-MAPK (P-MAPK) or anti-total MAPK (T-MAPK).

MMP-2 = assay: Zymography of conditioned media; conditions: N-cadherin transfectants, FGF-2 10 ng/ml
Method: (§1) FIG. 9. FGF-2 stimulates Matrigel invasion of N-cadherin-expressing cells and expression of MMP-9. (A) Invasion through Matrigel-coated filters of control and N-cadherin-expressing cells, pretreated for 24 h with 10 ng/ml of FGF-2 or left untreated, as measured 5 h after inoculation into Transwell chambers. The invading cells were stained (see Materials and Methods) and photographed using a digital microscope camera. Each panel illustrates a sample representing three to six filters. (B) Gelatinolytic activity of conditioned media of control (Neo-mass) (lanes 1 and 2) or N-cadherin-transfected MCF-7 cells (N-cad-mas, N-cad-5, and N-cad-17; lanes 3-8) that were either treated with FGF-2, or left untreated, as indicated. (C) Gelatinolytic activity of conditioned media of Neo-mass, N-cad-mass, N-cad-5, and N-cad- 17 that were pretreated for 24 h either with 10 ng/ml of FGF-2 (lanes 1, 3, 5 and 7, respectively) or 5 μg/ml insulin (lanes 2, 4, 6, and 8, respectively).
(§2) Secreted metalloproteinases were detected and characterized by zymography (Nakajima I et al., 1995, Br. J. Cancer. 71:1039-1045). Conditioned media were obtained by a 30-h incubation of N-cadherin and control transfected cells, which were treated overnight with or without FGF-2 (10 ng/ml) and heparin (0.1 mg/ml) in serum-free media. Conditioned media (20 μl) were loaded on 8% SDS PAGE gels that had been copolymerized with 1 mg/ml gelatin. Electrophoresis was performed under nonreducing conditions at 100 V for 2 h at 4° C. Gels were washed once for 30 min in 2.5% Triton X-100 to remove SDS, and were incubated in collagenase buffer (100 mM Tris-HCl pH 8.0, 5 mM CaCl2, 0.02% NaN3) for 40 h at 37° C. Gels were stained with 0.5% Coomassie blue in 30% methanol/10% acetic acid for 30 min at room temperature and destained in 30% methanol/10% acetic acid three times for 15 min. The presence of metalloproteinases was indicated by an unstained proteolytic zone in the substrate. […]

MMP = assay: Zymography of conditioned media
Method: as §1, §2

Neo-mass cell = assay: Matrigel invasion assay after FGF-2 pretreatment; conditions: 10 ng/ml FGF-2 for 24 h, 5 h of incubation
Method: (§3) FIG. 9. FGF-2 stimulates Matrigel invasion of N-cadherin-expressing cells and expression of MMP-9. (A) Invasion through Matrigel-coated filters of control and N-cadherin-expressing cells, pretreated for 24 h with 10 ng/ml of FGF-2 or left untreated, as measured 5 h after inoculation into Transwell chambers. The invading cells were stained (see Materials and Methods) and photographed using a digital microscope camera. Each panel illustrates a sample representing three to six filters. (B) Gelatinolytic activity of conditioned media of control (Neo-mass) (lanes 1 and 2) or N-cadherin-transfected MCF-7 cells (N-cad-mas, N-cad-5, and N-cad-17; lanes 3-8) that were either treated with FGF-2, or left untreated, as indicated. […] The ability of cells to migrate through control (migration) or invade through Matrigel-coated filters (invasion) was measured in a Boyden chamber, 8-micron Transwell filters, which were coated with or without 50 μg Matrigel (Becton Dickinson & Co.), were used according to standard protocols (Albini A et al., 1987, Cancer Res 47:3239-3245). […] Values for invasion were expressed as the average number of migrated cells bound per microscopic field over four fields per assay and expressed as averages for triplicate experiments.

[1] = test system: N-cadherin-expressing MCF-7 cells; assay: Matrigel invasion assay after FGF-2 pretreatment; conditions: N-cad mass, N-cad-5 and N-cad-17; 10 ng/ml FGF-2 for 24 h, 5 h of incubation
Method: as §3

[2] = test system: N-cadherin-expressing cell lines (N-cad-mass, N-cad-5, N-cad-17); assay: Transwell migration after FGF-2 pretreatment; conditions: pretreated 24 h with 10 ng/ml FGF-2, measured 5 h after inoculation into Transwell chambers
Method: (§4) FIG. 8. Stimulates cell migration of N-cadherin-expressing cells. The motility of control (Neo-mass) and N-cadherin-expressing cells (N-cad-mass, N-cad-5, and N-cad-17), pretreated for 24 h with 10 ng/ml of FGF-2 or left untreated, was measured 5 h after inoculation into the Transwell chambers. (A) The migrating cells were fixed, stained, and photographed; each panel represents an example of 3-6 replicates. (B) Bar graphs represent quantitation of triplicate wells. The experiment was repeated six times.
(§5) The ability of cells to migrate through control (migration) or invade through Matrigel-coated filters (invasion) was measured in a Boyden chamber, 8-micron Transwell filters, which were coated with or without 50 μg Matrigel (Becton Dickinson & Co.), were used according to standard protocols (Albini A et al., 1987, Cancer Res 47:3239-3245). Fibroblast conditioned medium, which was obtained by a 24-h incubation of NTH-3T3 cells with 50 μg/mL ascorbic acid in serum-free DME media, was placed in the lower chamber as a chemoattractant. […] Values for invasion were expressed as the average number of migrated cells bound per microscopic field over four fields per assay and expressed as averages for triplicate experiments.

Neo-mass cell line = assay: Transwell migration after FGF-2 pretreatment; conditions: pretreated 24 h with 10 ng/ml FGF-2, measured 5 h after inoculation into Transwell chambers
Method: as §4, §5

[3] = N-cad-5 cells, FGF-2 plus inhibitor

For `COc1cccc(-c2cc(=O)c3ccccc3o2)c1N` [PD 90859, reference compound], the “production of MMP-9 induced by FGF-2” value (MMP-9; [3]) was “blocked” and the “phosphorylation of MAPK induced by FGF-2” value (MAPK; [3]) was “blocked effectively”.

In the case of “FGF-2: growth factor FGF-2, purchased from Pepro Tech”, the MMP-2 production (MMP-2) is reported as “absence of detectable effects”, the MMP production (MMP; Neo-mass cells, FGF-2 10 ng/ml, conditioned media) is reported as “no effect” and the “expression of MMP-9” value (MMP-9; all N-cadherin transfectants, FGF-2 10 ng/ml, conditioned media) is reported as “dramatically increased; also recorded: stimulates”. For the same molecule, the “invasion through Matrigel-coated filters” value (Neo-mass cell) was “not effect”, the “invasiveness through Matrigel-coated filters” value [1] was “further enhanced; also recorded: stimulates” and the motility [2] was “dramatic increase”. The motility (Neo-mass cell line) was “did not affect”, the MAPK phosphorylation (MAPK; N-cad-5 cells, 10 ng/mL FGF-2 for 10 min) was “marked increase” and the “MAPK phosphorylation (ERK/P44 isoform)” value (MAPK; control MCF-7 cells, in the presence of FGF-2) was “only low levels of phosphorylation”.

“insulin: Insulin from Sigma, used at a concentration that acts through the IGF-1 receptor” was tested, and the MMP levels (MMP; N-cad-mass, N-cad-5, N-cad-17, 5 μg/ml insulin for 24 h) was “no effect”.
